Biological target: T1, WT LRRK2 (Homo sapiens, UniProt Q5S007)
T1 construct: endogenous in cells; host or cells: HEK293 (endogenous LRRK2 gene knock-in tagged with HiBit; stably expressing CMV-driven firefly luciferase)
Experiment: LRRK2 HiBit degradation assay (Nano-Glo Dual Luciferase) in HEK293 cells with HiBit-tagged endogenous LRRK2
Assay type: cell-based
Details: for Dmax / WT LRRK2 **Dmax (%): maximal degradation
Outline: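 HEK293 cells carrying endogenous C-terminally HiBit-tagged LRRK2 and stably expressing CMV-driven firefly luciferase were treated for 24 h at 37° C with an 11-point 1:3 series from a 1 μM final top concentration. Nano-Glo Dual Luciferase read LRRK2-HiBit against firefly signal. Alamar Blue gave viability, and signals were normalized to DMSO median before curve fitting.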

[1] = HEK293, Table 2, HiBit-tagged LRRK2 in HEK293 cells, 24 hours treatment
[2] = Table 2, HiBit-tagged LRRK2 in HEK293 cells, 24 hours treatment, starting concentration 1 μM
[3] = HEK293, Table 3, comparison with direct comparators
[4] = Table 3, comparison with direct comparators, HiBit-tagged LRRK2 in HEK293 cells, 24 hours treatment
[5] = Table 2, HiBit-tagged LRRK2 in HEK293 cells, 24 hours treatment

T1 sequence (Q5S007 whole entry): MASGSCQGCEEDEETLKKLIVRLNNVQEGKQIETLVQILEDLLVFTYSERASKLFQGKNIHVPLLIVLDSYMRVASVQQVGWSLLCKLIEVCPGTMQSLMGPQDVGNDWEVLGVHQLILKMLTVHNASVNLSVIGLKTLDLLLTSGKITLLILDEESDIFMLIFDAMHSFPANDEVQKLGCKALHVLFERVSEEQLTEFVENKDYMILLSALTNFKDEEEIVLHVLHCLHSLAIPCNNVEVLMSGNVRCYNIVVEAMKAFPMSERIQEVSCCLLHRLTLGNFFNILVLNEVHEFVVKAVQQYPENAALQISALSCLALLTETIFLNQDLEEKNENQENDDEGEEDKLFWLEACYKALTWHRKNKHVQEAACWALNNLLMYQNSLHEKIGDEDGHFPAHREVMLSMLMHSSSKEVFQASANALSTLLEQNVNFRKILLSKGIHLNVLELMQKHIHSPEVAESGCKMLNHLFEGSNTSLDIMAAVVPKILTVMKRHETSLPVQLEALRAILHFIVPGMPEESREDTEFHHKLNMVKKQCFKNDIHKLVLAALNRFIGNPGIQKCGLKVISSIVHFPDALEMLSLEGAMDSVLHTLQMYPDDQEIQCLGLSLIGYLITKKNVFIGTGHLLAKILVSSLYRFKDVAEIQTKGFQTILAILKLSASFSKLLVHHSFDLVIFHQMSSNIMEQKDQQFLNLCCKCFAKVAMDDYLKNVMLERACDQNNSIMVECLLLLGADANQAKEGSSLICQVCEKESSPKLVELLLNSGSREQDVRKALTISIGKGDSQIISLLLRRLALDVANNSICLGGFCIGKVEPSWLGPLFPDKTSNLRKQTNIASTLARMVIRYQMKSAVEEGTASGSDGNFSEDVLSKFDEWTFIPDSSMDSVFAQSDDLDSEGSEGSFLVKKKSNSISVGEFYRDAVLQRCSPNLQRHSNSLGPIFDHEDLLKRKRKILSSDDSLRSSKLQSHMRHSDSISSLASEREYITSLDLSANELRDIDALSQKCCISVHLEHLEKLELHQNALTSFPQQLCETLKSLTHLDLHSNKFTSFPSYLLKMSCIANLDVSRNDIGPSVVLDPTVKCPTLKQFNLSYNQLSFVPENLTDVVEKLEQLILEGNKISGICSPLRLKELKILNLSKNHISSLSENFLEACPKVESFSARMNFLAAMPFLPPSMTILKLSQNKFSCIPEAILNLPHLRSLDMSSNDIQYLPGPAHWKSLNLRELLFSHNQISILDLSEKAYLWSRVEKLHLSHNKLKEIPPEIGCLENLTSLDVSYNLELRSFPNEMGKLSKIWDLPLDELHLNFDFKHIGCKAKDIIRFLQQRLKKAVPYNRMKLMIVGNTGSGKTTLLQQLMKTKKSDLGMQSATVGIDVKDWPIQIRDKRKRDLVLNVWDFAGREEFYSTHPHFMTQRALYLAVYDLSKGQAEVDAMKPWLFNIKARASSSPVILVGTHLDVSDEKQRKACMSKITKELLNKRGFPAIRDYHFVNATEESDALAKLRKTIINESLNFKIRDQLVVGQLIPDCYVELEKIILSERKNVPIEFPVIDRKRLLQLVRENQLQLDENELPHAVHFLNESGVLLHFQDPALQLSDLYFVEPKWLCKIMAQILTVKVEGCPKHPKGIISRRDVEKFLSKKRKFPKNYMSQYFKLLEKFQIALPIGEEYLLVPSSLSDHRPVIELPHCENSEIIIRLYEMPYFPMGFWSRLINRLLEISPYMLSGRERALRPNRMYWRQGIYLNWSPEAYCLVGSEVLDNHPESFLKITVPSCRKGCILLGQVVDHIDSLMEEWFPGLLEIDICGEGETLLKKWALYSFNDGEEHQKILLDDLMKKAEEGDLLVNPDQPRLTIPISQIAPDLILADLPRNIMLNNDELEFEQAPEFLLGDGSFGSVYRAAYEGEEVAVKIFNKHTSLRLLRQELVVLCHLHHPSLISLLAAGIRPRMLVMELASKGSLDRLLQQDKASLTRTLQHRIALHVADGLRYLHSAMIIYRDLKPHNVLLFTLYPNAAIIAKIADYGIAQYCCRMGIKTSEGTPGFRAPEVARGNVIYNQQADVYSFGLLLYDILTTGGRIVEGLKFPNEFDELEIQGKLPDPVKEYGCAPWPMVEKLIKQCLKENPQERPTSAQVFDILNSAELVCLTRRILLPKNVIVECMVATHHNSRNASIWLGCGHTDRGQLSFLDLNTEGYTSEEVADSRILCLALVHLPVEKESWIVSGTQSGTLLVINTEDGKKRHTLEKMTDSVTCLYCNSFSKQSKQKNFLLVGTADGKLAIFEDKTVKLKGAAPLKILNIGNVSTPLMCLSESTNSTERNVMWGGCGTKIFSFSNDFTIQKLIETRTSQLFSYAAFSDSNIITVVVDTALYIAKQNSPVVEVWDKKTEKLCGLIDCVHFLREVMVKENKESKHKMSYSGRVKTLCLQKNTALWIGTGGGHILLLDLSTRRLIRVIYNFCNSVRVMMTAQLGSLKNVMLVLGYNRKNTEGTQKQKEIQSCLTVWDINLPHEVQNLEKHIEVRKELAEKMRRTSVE

Row | SMILES | Dmax [1] [%] | DC50 [2] [nM] | Dmax [3] [%] | DC50 [4] [nM] | WT LRRK2 **Dmax (%) [5] [%]
1 | Cn1c(=O)n(C2CCC(=O)NC2=O)c2cccc(N3CCC(CN4CCN(CC5CCN(c6cc(-c7n[nH]c8cnc(OC9(C)CC9)cc78)ncn6)CC5)C(C)(C)C4)CC3)c21 (stereo not shown) [Compound 47, 3-{4-[4-({3,3-dimethyl-4-[(1-{6-[5-(1-methylcyclopropoxy)-1H-pyrazolo[3,4-c]pyridin-3-yl]pyrimidin-4-yl}piperidin-4-yl)methyl]piperazin-1-yl}methyl)piperidin-1-yl]-3-methyl-2-oxo-2,3-dihydro-1H-1,3-benzodiazol-1-yl}piperidine-2,6-dione] | 100 | 24 |  |  | 
2 | Cn1c(=O)n(C2CCC(=O)NC2=O)c2ccc(N3CCC(OC4CCC(CN5CCN(c6cc(-c7n[nH]c8ccc(OC(C)(C)C)cc78)ncn6)CC5)CC4)CC3)cc21 (stereo not drawn) [Compound 54, rel-3-[3-methyl-2-oxo-5-(4-{[(1r,4r)-4-[(4-{6-[5-(tert-butoxy)-1H-indazol-3-yl]pyrimidin-4-yl}piperazin-1-yl)methyl]cyclohexyl]oxy}piperidin-1-yl)-2,3-dihydro-1H-1,3-benzodiazol-1-yl]piperidine-2,6-dione] |  | 0.33 |  |  | 53
3 | CC(C)Oc1ccc2[nH]nc(-c3cc(N4CCN(CC5CCC(OC6CCN(c7ccc8c(c7)n(C)c(=O)n8C7CCC(=O)NC7=O)CC6)CC5)CC4)ncn3)c2c1 (stereo not drawn) [Compound 55, rel-3-[3-methyl-2-oxo-5-(4-{[(1r,4r)-4-[(4-{6-[5-(propan-2-yloxy)-1H-indazol-3-yl]pyrimidin-4-yl}piperazin-1-yl)methyl]cyclohexyl]oxy}piperidin-1-yl)-2,3-dihydro-1H-1,3-benzodiazol-1-yl]piperidine-2,6-dione] |  | 1.5 |  |  | 53
4 | CC1(Oc2ccc3[nH]nc(-c4cc(N5CCC(CN6CCN(CC7CCN(c8cccc9c8ncn9C8CCC(=O)NC8=O)CC7)CC6(C)C)CC5)ncn4)c3c2)CC1 (stereo not shown) [Compound 69, 3-{4-[4-({3,3-dimethyl-4-[(1-{6-[5-(1-methylcyclopropoxy)-1H-indazol-3-yl]pyrimidin-4-yl}piperidin-4-yl)methyl]piperazin-1-yl}methyl)piperidin-1-yl]-1H-1,3-benzodiazol-1-yl}piperidine-2,6-dione] | 50 | 5 | 50 | 5 | 
5 | CC1(Oc2ccc3[nH]nc(-c4cc(N5CCC(CN6CCN(CC7CCN(c8cccc9c8ncn9C8CCC(=O)NC8=O)CC7)CC6)CC5)ncn4)c3c2)CC1 (stereo not shown) [Compound 70, 3-{4-[4-({4-[(1-{6-[5-(1-methylcyclopropoxy)-1H-indazol-3-yl]pyrimidin-4-yl}piperidin-4-yl)methyl]piperazin-1-yl}methyl)piperidin-1-yl]-1H-1,3-benzodiazol-1-yl}piperidine-2,6-dione] | 33 | 20 | 33 | 20 | 

More lines, in order of falling DC50 [2], values ahead:

Row | Dmax [1] [%] | DC50 [2] [nM] | Dmax [3] [%] | DC50 [4] [nM] | SMILES | WT LRRK2 **Dmax (%) [5] [%]
6 | 35 | 1.2 |  |  | Cn1c(=O)n(C2CCC(=O)NC2=O)c2ccc(N3CCC(O[C@H]4CC[C@@H](CN5CCN(c6cc(-c7n[nH]c8cnc(OC9(C)CC9)cc78)ncn6)CC5)CC4)CC3)cc21 (stereo partly shown) [Compound 68, 3-[3-methyl-2-oxo-5-(4-{[(1s,4s)-4-[(4-{6-[5-(1-methylcyclopropoxy)-1H-pyrazolo[3,4-c]pyridin-3-yl]pyrimidin-4-yl}piperazin-1-yl)methyl]cyclohexyl]oxy}piperidin-1-yl)-2,3-dihydro-1H-1,3-benzodiazol-1-yl]piperidine-2,6-dione] | 
7 | 64 | 1.1 |  |  | CC(C)n1c(=O)n(C2CCC(=O)NC2=O)c2ccc(N3CCC(CN4CCN(CC5CCN(c6cc(-c7n[nH]c8cnc(OC9(C)CC9)cc78)ncn6)CC5)C(C)(C)C4)CC3)cc21 (stereo not shown) [Compound 51, 3-{5-[4-({3,3-dimethyl-4-[(1-{6-[5-(1-methylcyclopropoxy)-1H-pyrazolo[3,4-c]pyridin-3-yl]pyrimidin-4-yl}piperidin-4-yl)methyl]piperazin-1-yl}methyl)piperidin-1-yl]-2-oxo-3-(propan-2-yl)-2,3-dihydro-1H-1,3-benzodiazol-1-yl}piperidine-2,6-dione] | 
8 | 56 | 0.14 | 56 | 0.14 | Cn1c(=O)n(C2CCC(=O)NC2=O)c2ccc(N3CCC(CN4CCN(CC5CCN(c6cc(-c7n[nH]c8cnc(OC9(C)CC9)cc78)ncn6)CC5)C(C)(C)C4)CC3)cc21 (stereo not shown) [Compound 48, 3-{5-[4-({3,3-dimethyl-4-[(1-{6-[5-(1-methylcyclopropoxy)-1H-pyrazolo[3,4-c]pyridin-3-yl]pyrimidin-4-yl}piperidin-4-yl)methyl]piperazin-1-yl}methyl)piperidin-1-yl]-3-methyl-2-oxo-2,3-dihydro-1H-1,3-benzodiazol-1-yl}piperidine-2,6-dione] | 
